Drawing on patent US20260248787A9, “MEDICAMENT FOR TREATING CANCER COMPRISING OPTICALLY ACTIVE AZABICYCLO RING DERIVATIVE” (Sumitomo Pharma Co., Ltd., priority 2023, published 2026), this text covers T/C for one compound.

Each structure is given as a SMILES string.

The test concerns MOLM-13 cells. As to the kind of experiment: Tumor-bearing mice transplanted with MOLM-13 cells, with gilteritinib, T/C (Example 12). The note with it: MOLM-13 tumor-bearing mice; oral; 30 mg/kg; 18 days. Format: in vivo. The method, then:
The antitumor effects of the present compound and gilteritinib were evaluated. The present compound was weighed and dissolved in 0.5 w/v % Methyl Cellulose 400 solution to give the compound concentrations of 20 mg/mL and 10 mg/mL. Gilteritinib was weighed and suspended in 0.5 w/v % Methyl Cellulose 400 solution to give the compound concentrations of 3 mg/mL.
MOLM-13 cells (DSMZ) were intradermally implanted around the ventral region of 5-week old NOD. CB17-PrkdcSCID/J mice (female, The Jackson Laboratory Japan) at 1×10^6 cells/mouse. After confirming the engraftment of MOLM-13 cells 6 days after the transplantation, the present compound was orally administered to the mice at a dose of 100 mg/kg or 200 mg/kg, and gilteritinib was orally administered to the mice at a dose of 30 mg/kg, once a day for 18 days. The tumor volume was measured over time from the start of the administration, and the reduction effect of the tumor volume due to the compound-administration was evaluated. The tumor volume was calculated by the following formula using short axis and long axis of the tumor measured with an electronic caliper (Mitutoyo).
The control administration group in which only the solvent was administered and the test substance administration group were compared, and T/C was calculated using the following formula to evaluate the antitumor effect.

`CCc1nc(C(N)=O)c(Nc2ccc(N3CCC(N4CCN(C)CC4)CC3)c(OC)c2)nc1NC1CCOCC1` [gilteritinib, reference compound] gave a T/C of 5.3%.
